In the NIST ThermoML archive (doi:10.1021/je101058b):
± gives the expanded uncertainty stated by the source.

Conditions: Liquid, Pycnometric method

c1ccc2c(c1)ccc1ccccc12 [phenanthrene]
molar volume [m3/mol]
Conditions	377.69 K	385.54 K	393.38 K	401.26 K	409.13 K	417.06 K	424.84 K
2049 kPa	0.0001679 ± 1.1e-07	0.0001688 ± 1.1e-07	0.0001698 ± 1.1e-07	0.0001708 ± 1.2e-07	0.0001717 ± 1.2e-07	0.0001728 ± 1.2e-07	0.0001738 ± 1.3e-07
4049 kPa	0.0001677 ± 1.1e-07	0.0001686 ± 1.1e-07	0.0001696 ± 1.1e-07	0.0001705 ± 1.2e-07	0.0001715 ± 1.2e-07	0.0001726 ± 1.2e-07	0.0001735 ± 1.3e-07
6049 kPa	0.0001674 ± 1.1e-07	0.0001683 ± 1.1e-07	0.0001692 ± 1.1e-07	0.0001702 ± 1.2e-07	0.0001712 ± 1.2e-07	0.0001723 ± 1.2e-07	0.0001732 ± 1.3e-07
8049 kPa	0.0001672 ± 1.1e-07	0.0001681 ± 1.1e-07	0.000169 ± 1.1e-07	0.00017 ± 1.2e-07	0.000171 ± 1.2e-07	0.0001719 ± 1.2e-07	0.0001729 ± 1.3e-07
10049 kPa	0.000167 ± 1.1e-07	0.0001679 ± 1.1e-07	0.0001689 ± 1.1e-07	0.0001698 ± 1.2e-07	0.0001709 ± 1.2e-07	0.0001718 ± 1.2e-07	0.0001727 ± 1.3e-07
